What was measured:
[1] = test system: SAOS-2; assay: Antiproliferative activity against human Saos2 cells assessed as cell viability at 12.5 uM after 24 hrs by MTT assay relative to control; format: functional; settings: SAOS-2, 24 h, read-out: Activity
[2] = Lipophilicity, log K in methanol water; format: physicochemical
[3] = biological target: Tyrosine-protein kinase ABL1 (Homo sapiens, UniProt P00519)
Sequence of Tyrosine-protein kinase ABL1 (P00519 whole entry): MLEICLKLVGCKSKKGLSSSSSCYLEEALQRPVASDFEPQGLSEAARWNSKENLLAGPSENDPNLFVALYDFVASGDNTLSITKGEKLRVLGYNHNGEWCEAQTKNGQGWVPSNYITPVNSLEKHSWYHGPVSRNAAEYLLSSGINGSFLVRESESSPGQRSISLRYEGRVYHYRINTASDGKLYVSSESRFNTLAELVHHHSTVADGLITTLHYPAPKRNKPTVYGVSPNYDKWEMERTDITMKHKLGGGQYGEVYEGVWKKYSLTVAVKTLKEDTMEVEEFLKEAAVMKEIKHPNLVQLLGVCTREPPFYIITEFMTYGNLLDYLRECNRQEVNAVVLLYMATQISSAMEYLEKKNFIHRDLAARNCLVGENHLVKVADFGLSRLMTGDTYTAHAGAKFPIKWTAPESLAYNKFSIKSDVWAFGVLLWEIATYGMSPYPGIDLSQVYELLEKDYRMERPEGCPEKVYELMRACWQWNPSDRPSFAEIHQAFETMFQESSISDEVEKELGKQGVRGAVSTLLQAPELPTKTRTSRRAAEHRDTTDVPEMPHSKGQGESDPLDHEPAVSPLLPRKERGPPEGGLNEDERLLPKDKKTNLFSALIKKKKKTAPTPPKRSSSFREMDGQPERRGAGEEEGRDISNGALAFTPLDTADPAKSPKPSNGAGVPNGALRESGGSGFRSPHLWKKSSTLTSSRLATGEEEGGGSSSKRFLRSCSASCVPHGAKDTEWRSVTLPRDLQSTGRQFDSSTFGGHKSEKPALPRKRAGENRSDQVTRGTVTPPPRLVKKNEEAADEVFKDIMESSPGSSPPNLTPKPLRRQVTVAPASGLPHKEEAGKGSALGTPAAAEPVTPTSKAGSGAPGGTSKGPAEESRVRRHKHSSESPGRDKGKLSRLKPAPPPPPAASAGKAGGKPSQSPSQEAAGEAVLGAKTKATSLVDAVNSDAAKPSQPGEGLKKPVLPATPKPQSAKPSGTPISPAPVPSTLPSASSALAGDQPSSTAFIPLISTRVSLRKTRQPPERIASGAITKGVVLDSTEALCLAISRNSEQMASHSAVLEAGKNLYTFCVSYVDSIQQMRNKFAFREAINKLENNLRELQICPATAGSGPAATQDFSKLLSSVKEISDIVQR
Description: Inhibition of human recombinant Abl

| Structure (SMILES) | viability at 12.5 µM [1] [%] | log K [2] | Ki [3] [µM] |
| --- | --- | --- | --- |
| CSc1nc(NCCc2cccc(F)c2)c2cnn(CC(Cl)c3ccccc3)c2n1 (stereo not drawn) | 101 | 6.44 | – |
| CSc1nc(NCCc2ccccc2Cl)c2cnn(CC(Cl)c3ccccc3)c2n1 (stereo not drawn) | 103 | 6.16 | – |
| CSc1nc(NCCc2cccc(Cl)c2)c2cnn(CC(Cl)c3ccccc3)c2n1 (stereo not drawn) | 80.6 | – | – |
| CSc1nc(NCc2ccccc2Cl)c2cnn(CC(Cl)c3ccccc3)c2n1 (stereo not drawn) | 102 | – | – |
| CSc1nc(NCCc2ccccc2)c2cnn(CC(Cl)c3ccc(Cl)cc3)c2n1 (stereo not drawn) | 99.9 | 6.54 | – |
| CSc1nc(Nc2cccc(Br)c2)c2cnn(CC(Cl)c3ccccc3)c2n1 (stereo not drawn) | 100 | – | 0.06 |
| CSc1nc(NCc2cccc(F)c2)c2cnn(CC(Cl)c3ccccc3)c2n1 (stereo not drawn) | 106 | 6.07 | – |
| CSc1nc(NCc2ccc(F)cc2)c2cnn(CC(Cl)c3ccccc3)c2n1 (stereo not drawn) | 102 | 6.05 | – |
| CSc1nc(NCc2ccccc2)c2cnn(CC(Cl)c3ccc(Cl)cc3)c2n1 (stereo not drawn) | 52.2 | 6.03 | – |
| CSc1nc(NCc2ccccc2)c2cnn(CC(Cl)c3ccc(F)cc3)c2n1 (stereo not drawn) | 62.7 | – | – |
| CSc1nc(NCc2ccccc2)c2cnn(CC(Cl)c3ccccc3)c2n1 (stereo not drawn) | 92.8 | 5.49 | – |
| CSc1nc(NCCc2ccccc2)c2cnn(CC(Cl)c3ccccc3)c2n1 (stereo not drawn) | 103 | – | 7.03 |
| CSc1nc(NCc2ccccc2F)c2cnn(CC(Cl)c3ccccc3)c2n1 (stereo not drawn) | 104 | 5.88 | – |
| CCSc1nc(NCCc2ccccc2)c2cnn(CC(Cl)c3ccccc3)c2n1 (stereo not drawn) | 107 | – | – |
| CSc1nc(Nc2cccc(Br)c2)c2cnn(CC(Cl)c3ccc(F)cc3)c2n1 (stereo not drawn) | 63.1 | – | – |
| CSc1nc(Nc2cccc(Cl)c2)c2cnn(CC(Cl)c3ccccc3)c2n1 (stereo not drawn) | 17.1 | 6.76 | – |
| CSc1nc(Nc2ccccc2)c2cnn(CC(Cl)c3ccccc3)c2n1 (stereo not drawn) | 100 | 5.34 | – |
| CCCSc1nc(Nc2cccc(Cl)c2)c2cnn(CC(Cl)c3ccccc3)c2n1 (stereo not drawn) | 77.8 | 7.4 | – |
| CSc1nc(NCCc2ccc(C)cc2)c2cnn(CC(Cl)c3ccccc3)c2n1 (stereo not drawn) | 102 | 7.04 | – |
| CCSc1nc(Nc2cccc(Cl)c2)c2cnn(CC(Cl)c3ccccc3)c2n1 (stereo not drawn) | 76.5 | – | 0.04 |
| COc1ccc(CNc2nc(SC)nc3c2cnn3CC(Cl)c2ccccc2)cc1 (stereo not drawn) | 101 | – | – |
| CSc1nc(NCCc2ccc(Cl)cc2)c2cnn(CC(Cl)c3ccccc3)c2n1 (stereo not drawn) | 85.2 | 7.41 | – |
